Laboratory results: patent publication US20180201592A1, “2-AMINO-1,3,4-THIADIAZINE AND 2-AMINO-1,3,4-OXADIAZINE BASED ANTIFUNGAL AGENTS” (F2G Limited, priority 2015, published 2018)

Key:
Conditions in all cases: banded MIC grade
A. terreus = test: Minimum inhibitory concentration, RPMI medium; format: cell-based
Method in brief: (§1)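 Thawed 5 mg/mL DMSO stocks are vortexed, diluted into sterile water and serially halved in water. The MIC test is then run in RPMI 1640 at 35° C for 24-48 hrs. Wells are read at OD 485 nm.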

C. albicans = test: Minimum inhibitory concentration, RPMI medium; format: cell-based
Method in brief: as §1

C. krusei = test: Minimum inhibitory concentration, RPMI medium; format: cell-based
Method in brief: as §1

C. tropicalis = test: Minimum inhibitory concentration, RPMI medium; format: cell-based
Method in brief: as §1

C. parapsilosis = test: Minimum inhibitory concentration, RPMI medium; format: cell-based
Method in brief: as §1

A. terreus 49 [1] = test: Minimum inhibitory concentration, RPMI medium; format: cell-based
Method in brief: as §1

A. flavus = test: Minimum inhibitory concentration, RPMI medium; format: cell-based
Method in brief: as §1

A. niger = test: Minimum inhibitory concentration, RPMI medium; format: cell-based
Method in brief: as §1

C. glabrata = test: Minimum inhibitory concentration, RPMI medium; format: cell-based
Method in brief: as §1

A. fumigatus 210 [2] = test: Minimum inhibitory concentration, RPMI medium; format: cell-based
Method in brief: (§2)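 Compound doubling dilutions were prepared from 5 mg/mL DMSO stock; fungus was diluted in RPMI 1640 with 2% glucose and 0.135 M MOPS (pH 7.0), giving inocula of 1-2×10^4 cfu/mL and drug range 50-0.05 mg/L. Plates ran 24-48 hrs at 35° C; MIC is the lowest concentration giving >80% growth inhibition by OD485 versus drug-free control.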

A. fumigatus = test: Minimum inhibitory concentration, RPMI medium; format: cell-based
Method in brief: as §2

Aspergillus terreus = test: Minimum inhibitory concentration, YAG medium; format: cell-based
Method in brief: (§3)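 MIC values (mg/L) were derived from well optical density at 485 nm. Plates with Aspergillus spores and doubling aqueous dilutions of compound (5 mg/mL DMSO stock) had been incubated at 35° C for 24 hrs.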

Aspergillus flavus = test: Minimum inhibitory concentration, YAG medium; format: cell-based
Method in brief: as §3

Aspergillus niger = test: Minimum inhibitory concentration, YAG medium; format: cell-based
Method in brief: as §3

A. terreus 49 [3] = test: Minimum inhibitory concentration, YAG medium; format: cell-based, Aspergillus terreus
Method in brief: as §3

A. fumigatus 210 [4] = test: Minimum inhibitory concentration, YAG medium; format: cell-based, Aspergillus fumigatus
Method in brief: (§4)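 MICs (mg/L) reflect >70% inhibition of OD485 growth versus untreated control after 24 hrs at 35° C in YAG medium, spore inoculum 1-2×10^4 cfu/mL, drug range 50-0.05 mg/L.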

Aspergillus fumigatus = test: Minimum inhibitory concentration, YAG medium; format: cell-based
Method in brief: as §4

NC1=NN=C(CCCCOCc2cccc(C3CC3)c2)CS1
4 (4: <1 mg/L): MIC grade, C. ALBICANS, RPMI media (C. albicans) | MIC grade, C. KRUSEI, RPMI media (C. krusei) | MIC grade, C. TROPICALIS, RPMI media (C. tropicalis) | MIC grade, C. PARAPSILOSIS, RPMI media (C. parapsilosis)
3 (3: 0.2-1 mg/L): MIC grade, A. TERREUS, YAG media (Aspergillus terreus) | MIC grade, A. FLAVUS, YAG media (Aspergillus flavus) | MIC grade, A. NIGER, YAG media (Aspergillus niger) | MIC grade, A. TERREUS 49, YAG media (A. terreus 49 [3]) | MIC grade, A. FUMIGATUS 210, YAG media (A. fumigatus 210 [4]) | MIC grade, A. FUMIGATUS, YAG media (Aspergillus fumigatus)
2 (2: 5-20 mg/L): MIC grade, A. TERREUS, RPMI media (A. terreus) | MIC grade, A. TERREUS 49, RPMI media (A. terreus 49 [1]) | MIC grade, A. FLAVUS, RPMI media (A. flavus) | MIC grade, A. NIGER, RPMI media (A. niger) | MIC grade, C. GLABRATA, RPMI media (C. glabrata) | MIC grade, A. FUMIGATUS 210, RPMI media (A. fumigatus 210 [2])
3 (3: 1-5 mg/L): MIC grade, A. FUMIGATUS, RPMI media (A. fumigatus)

Cc1cc(COCCCCC2=NN=C(N)SC2)ccc1F
4 (4: <1 mg/L): MIC grade, C. ALBICANS, RPMI media (C. albicans) | MIC grade, C. KRUSEI, RPMI media (C. krusei) | MIC grade, C. TROPICALIS, RPMI media (C. tropicalis) | MIC grade, C. PARAPSILOSIS, RPMI media (C. parapsilosis) | MIC grade, A. FLAVUS, RPMI media (A. flavus) | MIC grade, A. FUMIGATUS, RPMI media (A. fumigatus)
3 (3: 1-5 mg/L): MIC grade, A. TERREUS, RPMI media (A. terreus) | MIC grade, A. TERREUS 49, RPMI media (A. terreus 49 [1]) | MIC grade, A. NIGER, RPMI media (A. niger) | MIC grade, C. GLABRATA, RPMI media (C. glabrata)
2 (2: 5-20 mg/L): MIC grade, A. FUMIGATUS 210, RPMI media (A. fumigatus 210 [2])
4 (4: <0.2 mg/L): MIC grade, A. TERREUS, YAG media (Aspergillus terreus) | MIC grade, A. FLAVUS, YAG media (Aspergillus flavus) | MIC grade, A. NIGER, YAG media (Aspergillus niger) | MIC grade, A. TERREUS 49, YAG media (A. terreus 49 [3]) | MIC grade, A. FUMIGATUS 210, YAG media (A. fumigatus 210 [4]) | MIC grade, A. FUMIGATUS, YAG media (Aspergillus fumigatus)

NC1=NN=C(CCCCOCc2ccc(F)cc2)CS1
1 (1: ≥20 mg/L): MIC grade, A. TERREUS, RPMI media (A. terreus) | MIC grade, A. TERREUS 49, RPMI media (A. terreus 49 [1]) | MIC grade, A. FLAVUS, RPMI media (A. flavus) | MIC grade, A. NIGER, RPMI media (A. niger) | MIC grade, A. FUMIGATUS 210, RPMI media (A. fumigatus 210 [2]) | MIC grade, A. FUMIGATUS, RPMI media (A. fumigatus)
2 (2: 1-5 mg/L): MIC grade, A. TERREUS, YAG media (Aspergillus terreus) | MIC grade, A. FLAVUS, YAG media (Aspergillus flavus) | MIC grade, A. NIGER, YAG media (Aspergillus niger) | MIC grade, A. TERREUS 49, YAG media (A. terreus 49 [3]) | MIC grade, A. FUMIGATUS 210, YAG media (A. fumigatus 210 [4]) | MIC grade, A. FUMIGATUS, YAG media (Aspergillus fumigatus)
2 (2: 5-20 mg/L): MIC grade, C. ALBICANS, RPMI media (C. albicans) | MIC grade, C. KRUSEI, RPMI media (C. krusei) | MIC grade, C. TROPICALIS, RPMI media (C. tropicalis) | MIC grade, C. PARAPSILOSIS, RPMI media (C. parapsilosis) | MIC grade, C. GLABRATA, RPMI media (C. glabrata)

COc1ccc(COCCCCC2=NN=C(N)SC2)cc1
2 (2: 1-5 mg/L): MIC grade, A. TERREUS, YAG media (Aspergillus terreus) | MIC grade, A. FLAVUS, YAG media (Aspergillus flavus) | MIC grade, A. NIGER, YAG media (Aspergillus niger) | MIC grade, A. TERREUS 49, YAG media (A. terreus 49 [3]) | MIC grade, A. FUMIGATUS 210, YAG media (A. fumigatus 210 [4]) | MIC grade, A. FUMIGATUS, YAG media (Aspergillus fumigatus)
1 (1: ≥20 mg/L): MIC grade, A. TERREUS, RPMI media (A. terreus) | MIC grade, A. TERREUS 49, RPMI media (A. terreus 49 [1]) | MIC grade, A. FLAVUS, RPMI media (A. flavus) | MIC grade, A. NIGER, RPMI media (A. niger) | MIC grade, A. FUMIGATUS 210, RPMI media (A. fumigatus 210 [2]) | MIC grade, A. FUMIGATUS, RPMI media (A. fumigatus)
2 (2: 5-20 mg/L): MIC grade, C. ALBICANS, RPMI media (C. albicans) | MIC grade, C. KRUSEI, RPMI media (C. krusei) | MIC grade, C. TROPICALIS, RPMI media (C. tropicalis) | MIC grade, C. PARAPSILOSIS, RPMI media (C. parapsilosis) | MIC grade, C. GLABRATA, RPMI media (C. glabrata)
